Test results published in article PMC9918898, “Bioactive Clerodane Diterpenoids from the Leaves of Casearia coriacea Vent” (Molecules, 2023).
Values after ≈ are worked out from the molar mass of the structure shown. Values joined by “and” are separate entries in the source; they are usually repeats but may differ in a detail not shown here. Identical values can stand only once. Like-named read-outs stand apart in the source and are kept apart here.

Assays:
P. falciparum 3D7 = assay: Antiplasmodial activity, lactate dehydrogenase assay; assay type: cell-based; conditions: Plasmodium falciparum
Procedure: (§1) A continuous in vitro culture of asexual erythrocyte stages of P. falciparum, chloroquine-sensitive strain 3D7 (ATCC), was maintained following the procedure of Trager and Jensen. Antiplasmodial activity tests were conducted as previously described by the determination of lactate deshydrogenase activity. IC50 was calculated from graphs (GraphPad Prism). T. brucei strain 427 (Molteno Institute in Cambridge, UK) and L. mexicana mexicana (MHOM/BZ/84/BEL46 from Pr. P.A.M Michels of De Duve Institue, UCLouvain) were maintained following the procedure previously described by the team of Pr. Quetin-Leclercq. Antileshmanial and antitrypanosomal assays were conducted as previously described, using the AlamarBlue assay.

[1] = test system: Leishmania mexicana mexicana; assay: Antileishmanial assay (AlamarBlue); assay type: cell-based
Procedure: as §1

[2] = test system: Trypanosoma brucei brucei; assay: Antitrypanosomal assay (AlamarBlue); assay type: cell-based
Procedure: as §1

Hemolysis = assay type: cell-based
A549 cells = assay: In vitro cytotoxic activity (Prestoblue); assay type: cell-based, human; conditions: towards Plasmodium
Procedure: (§2) Assays were performed on different human cancer cell lines (MDA-MB-231, PANC-1, and A549 cells obtained from ATCC) to evaluate the cytotoxicity potential of the compounds 1–3, and the crude extract. Cells were grown in high-glucose Dulbecco’s modified Eagle Medium (DMEM, Gibco) supplemented with glutamine (2 mM), penicillin (50 IU/mL), streptomycin (0.5 mg/mL), sodium pyruvate (0.5 mM), and 10% FBS (Foetal Bovine Serum) at 37 °C with 5% CO2 in the air. Compounds were tested in 96-well microplates using the Prestoblue® colorimetric assay for cell viability based on the reduction of resazurin in resorufin as previously described. Briefly, 2500 cells were seeded per well in 100 µL of medium supplemented with adequate concentrations of the tested drugs. After 72 h of drug exposure, 75 µL of diluted solution of Prestoblue reagent were added to each well, and the plate was incubated in the dark for 2 h at 37 °C. Any changes in cell viability were detected using fluorescence spectroscopy. The fluorescence of resorufin was measured using a SpectraMax i3 plate reader (Molecular Devices™) with excitation and emission wavelengths set at 560 nm and 590 nm, respectively. The cell viability was expressed as a percentage relative to control-vehicle-treated cells (DMSO 0.1%). IC50 values were calculated from graphs based on a regression line in which the resorufin fluorescence values were plotted against the logarithm of drug concentration.

MDA-MB-231 cells = assay: In vitro cytotoxic activity (Prestoblue); assay type: cell-based, human; conditions: towards Plasmodium
Procedure: as §2

PANC-1 cells = assay: In vitro cytotoxic activity (Prestoblue); assay type: cell-based, human; conditions: towards Plasmodium
Procedure: as §2

[3] = Zebrafish embryos acute toxicity test; assay type: in vivo, Danio rerio; conditions: zebrafish (Danio rerio), in vivo, other: immersion of embryos in treatment solution in wells; zebrafish embryos
Procedure: (§3) Adult zebrafish (Danio rerio) were maintained, fulfilling the criteria of the Ethical Committee for the Use of Laboratory Animals at the University of Liège. They were maintained at 28 °C over a period of 14 h day/10 h night, and fertilized eggs were collected, washed with sterile water, and placed in Petri dishes. The embryos were collected, and their chorions were not removed at 24 hpf. Compound 1 was dissolved in DMSO (the maximum final concentration of DMSO was 0.4%). Twenty embryos were used per condition in a 6-well plate. Each well contained 5 mL of the treatment dose (compound 1 or DMSO 0.4%), which was replaced daily for three days. The embryos were observed under a binocular microscope daily until 72 hpf (hours post fertilization).

zebrafish embryos = assay: Zebrafish embryos acute toxicity test; assay type: in vivo, Danio rerio
Procedure: as §3

zebrafish = test system: zebrafish; design: method as in PMID 21738604; conditions: cited from earlier work
[4] = n = 3, mean ± SD, read-out: Leishmania IC50 (converted)
[5] = 3D7, n = 3, mean ± SD, read-out: P. falciparum 3D7 IC50 (converted)
[6] = n = 3, mean ± SD, read-out: Trypanosoma IC50 (converted)

What does the source list for C=CC(=C)CC[C@]1(C)[C@H]2C[C@H](OC(=O)CCC)C=C3[C@H](OC(C)=O)O[C@H](OC(C)=O)[C@@]32[C@H](O)C[C@@H]1C [Compound 1, caseamembrin T]?
IC50 (P. falciparum 3D7; 3D7, read-out: P. falciparum 3D7 IC50): 0.25 µg/mL and 490 nM; IC50 [1, 4]: 26.1 µg/mL and 51.7 µM; IC50 ([2]; read-out: Trypanosoma IC50): 3.08 µg/mL and 6.11 µM; hemolysis (Hemolysis): < 1%; selectivity index against A549 (A549 cells): 6.5; selectivity index against MDA-MB-231 (MDA-MB-231 cells): 5.4; selectivity index against PANC-1 (PANC-1 cells): 3; LC50 at 3 days [3]: 1 to 5 µg/mL (≈ 1.98 to 9.91 µM); embryos alive (zebrafish embryos; 5 µg/mL, 48 hpf): 20%; state of embryos (zebrafish embryos; 5 µg/mL, 72 hpf): lifeless; lethality (zebrafish embryos; concentrations higher than 5 µg/mL): lethal for all embryos; mortality and morphological change (zebrafish embryos; up to a concentration of 1 µg/mL): neither mortality nor morphological change were observed

What does the source list for C=CC(=C)CC[C@]1(C)[C@H]2C[C@H](OC(=O)C(C)CC)C=C3[C@H](OC(C)=O)O[C@H](OC(C)=O)[C@@]32[C@H](O)C[C@@H]1C (relative stereo) [Compound 3, rel-(2S,5R,6R,8S,9S,10R,18S,19R)-18,19-epoxy-18,19-diacetoxy-6-hydroxy-2-(2-methylbutanoyloxy)cleroda-3,13(16),14-triene]?
IC50 (P. falciparum 3D7; [5]): 0.51 µg/mL and 980 nM; IC50 [1, 4]: 26 µg/mL and 50.3 µM; IC50 [2, 6]: 3.03 µg/mL and 5.85 µM; hemolysis (Hemolysis): < 1%

For N=C(N)c1ccc(OCCCCCOc2ccc(C(=N)N)cc2)cc1 [Pentamidine, reference compound], which IC50 ([1]; read-out: Leishmania IC50) is on record?
Its IC50 is 0.02 µg/mL and 60 nM.

For CC(=O)Nc1ccc(O)cc1 [paracetamol], which “lethal dose 50 (LC50)” value (zebrafish) is on record?
Its value is 535.8 ± 17.1 µg/mL.

Which IC50 [2, 6] does the source give for Cc1ccc(C(=O)Nc2ccc(S(=O)(=O)O)c3cc(S(=O)(=O)O)cc(S(=O)(=O)O)c23)cc1NC(=O)c1cccc(NC(=O)Nc2cccc(C(=O)Nc3cc(C(=O)Nc4ccc(S(=O)(=O)O)c5cc(S(=O)(=O)O)cc(S(=O)(=O)O)c45)ccc3C)c2)c1 [Suramine, reference compound] here?
Its IC50 is 0.05 µg/mL and 40 nM.

For C[C@@H]1CC[C@H]2[C@@H](C)C(=O)O[C@@H]3O[C@@]4(C)CC[C@@H]1[C@]32OO4 [Artemisinin, reference compound], which IC50 (P. falciparum 3D7; [5]) is on record?
The IC50 was 0.004 ± 0.001 µg/mL (≈ 0.0142 µM).

With C[C@H]1O[C@@H](O[C@H]2[C@@H](O)C[C@H](O[C@H]3[C@@H](O)C[C@H](O[C@H]4CC[C@@]5(C)[C@H](CC[C@@H]6[C@@H]5C[C@@H](O)[C@]5(C)[C@@H](C7=CC(=O)OC7)CC[C@]65O)C4)O[C@@H]3C)O[C@@H]2C)C[C@H](O)[C@@H]1O [digoxin] as the compound, how does the “lethal dose 50 (LC50)” value (zebrafish) read?
Its value is 0.5 ± 0.006 µg/mL.

With CN1CCC[C@H]1c1cccnc1 [nicotine] as the compound, how does the “lethal dose 50 (LC50)” value (zebrafish) read?
The value was 35.1 ± 0.5 µg/mL.

For C=CC(=C)CC[C@]1(C)[C@H]2C[C@H](OC(=O)C(C)C)C=C3[C@H](OC(C)=O)O[C@H](OC(C)=O)[C@@]32[C@H](O)C[C@@H]1C [Compound 2, corymbulosine I], which IC50 (P. falciparum 3D7; [5]) is on record?
Its IC50 is 0.4 µg/mL and 790 nM.

And the IC50 [1, 4]?
Its IC50 is 10.3 µg/mL and 20.4 µM.

And the IC50 [2, 6]?
Its IC50 is 3 µg/mL and 5.95 µM.

And the hemolysis (Hemolysis; red blood cells, read-out: Hemolysis)?
The hemolysis was less than 1%.
